Source: ChEMBL document CHEMBL3885881, “DrugMatrix”

Organism: Rattus norvegicus
Assay: DrugMatrix - Regimen: Daily Repeat
Assay type: toxicity, organism-based, Sprague-Dawley
Set-up: regimen Daily Repeat, gender Male, age 6-8 weeks
Conditions: in vivo, sc, route subcutaneous, […]; for ABSOLUTE BASOPHIL / ABSOLUTE EOSINOPHIL / ABSOLUTE LYMPHOCYTE / ABSOLUTE MONOCYTE / ABSOLUTE SEGMENTED NEUTROPHIL / BASOPHIL / EOSINOPHIL / ERYTHROCYTE COUNT / HEMATOCRIT / HEMOGLOBIN / LEUKOCYTE COUNT / LYMPHOCYTE / MEAN CORPUSCULAR HEMOGLOBIN / MEAN CORPUSCULAR HEMOGLOBIN CONCENTRATION / MEAN CORPUSCULAR VOLUME / MONOCYTE / NEUTROPHIL / NUCLEATED RED BLOOD CELLS / PLATELET COUNT: tissue Blood; for ALANINE AMINOTRANSFERASE / ALBUMIN / ALKALINE PHOSPHATASE / ASPARTATE AMINOTRANSFERASE / BLOOD UREA NITROGEN / CARBON DIOXIDE / CHLORIDE / CHOLESTEROL / CREATINE PHOSPHOKINASE / CREATININE / GLUCOSE / LACTATE DEHYDROGENASE / LIPASE / PHOSPHORUS / POTASSIUM / SODIUM / TOTAL BILIRUBIN / TOTAL PROTEIN / URIC ACID: tissue Plasma
[1] = 0.8 mg/kg, 120 h, dose level Low, time 5 day
[2] = 8 mg/kg, 72 h, dose level High, time 3 day
[3] = 8 mg/kg, 120 h, dose level High, time 5 day

## Oc1c(Cl)cc(Cl)c(Cl)c1Cc1c(O)c(Cl)cc(Cl)c1Cl [HEXACHLOROPHENE]
[1]
  ABSOLUTE BASOPHIL: 0 CELLS/uL
  ABSOLUTE EOSINOPHIL: 0 CELLS/uL
  ABSOLUTE LYMPHOCYTE: 15077 CELLS/uL
  ABSOLUTE MONOCYTE: 281 CELLS/uL
  ABSOLUTE SEGMENTED NEUTROPHIL: 1342 CELLS/uL
  BASOPHIL: 0%
  EOSINOPHIL: 0%
  ERYTHROCYTE COUNT: 5.52 x10E6/uL
  HEMATOCRIT: 35.07%
  HEMOGLOBIN: 13.27 G/DL
  LEUKOCYTE COUNT: 16.7 x10E3/uL
  LYMPHOCYTE: 90.33%
  MEAN CORPUSCULAR HEMOGLOBIN: 24.07 pg
  MEAN CORPUSCULAR HEMOGLOBIN CONCENTRATION: 37.9 G/DL
  MEAN CORPUSCULAR VOLUME: 63.53 fL
  MONOCYTE: 1.67%
  NEUTROPHIL: 8%
  NUCLEATED RED BLOOD CELLS: 0 /100WBC
  PLATELET COUNT: 1358.33 x10E3/uL
  ALANINE AMINOTRANSFERASE: 45.33 u/L
  ALBUMIN: 4.07 G/DL
  ALKALINE PHOSPHATASE: 296.33 u/L
  ASPARTATE AMINOTRANSFERASE: 78 u/L
  BLOOD UREA NITROGEN: 15.67 mg/dL
  CARBON DIOXIDE: 26.67 mmol/L
  CHLORIDE: 104.67 MEQ/L
  CHOLESTEROL: 74.67 mg/dL
  CREATINE PHOSPHOKINASE: 237 u/L
  CREATININE: 0.35 mg/dL
  GLUCOSE: 154.33 mg/dL
  LACTATE DEHYDROGENASE: 156 u/L
  LIPASE: 11 u/L
  PHOSPHORUS: 11.83 mg/dL
  POTASSIUM: 6.6 MEQ/L
  SODIUM: 144.67 MEQ/L
  TOTAL BILIRUBIN: 0.13 mg/dL
  TOTAL PROTEIN: 5.8 G/DL
  URIC ACID: 1.47 mg/dL
[2]
  ABSOLUTE BASOPHIL: 0 CELLS/uL
  ABSOLUTE EOSINOPHIL: 49.67 CELLS/uL
  ABSOLUTE LYMPHOCYTE: 12140.67 CELLS/uL
  ABSOLUTE MONOCYTE: 337 CELLS/uL
  ABSOLUTE SEGMENTED NEUTROPHIL: 1839.33 CELLS/uL
  BASOPHIL: 0%
  EOSINOPHIL: 0.33%
  ERYTHROCYTE COUNT: 5.89 x10E6/uL
  HEMATOCRIT: 36.63%
  HEMOGLOBIN: 13.43 G/DL
  LEUKOCYTE COUNT: 14.37 x10E3/uL
  LYMPHOCYTE: 84.67%
  MEAN CORPUSCULAR HEMOGLOBIN: 22.8 pg
  MEAN CORPUSCULAR HEMOGLOBIN CONCENTRATION: 36.7 G/DL
  MEAN CORPUSCULAR VOLUME: 62.27 fL
  MONOCYTE: 2.33%
  NEUTROPHIL: 12.67%
  NUCLEATED RED BLOOD CELLS: 0 /100WBC
  PLATELET COUNT: 1253 x10E3/uL
  ALANINE AMINOTRANSFERASE: 52 u/L
  ALBUMIN: 4.1 G/DL
  ALKALINE PHOSPHATASE: 314.33 u/L
  ASPARTATE AMINOTRANSFERASE: 87.67 u/L
  BLOOD UREA NITROGEN: 16.67 mg/dL
  CARBON DIOXIDE: 22.33 mmol/L
  CHLORIDE: 105.33 MEQ/L
  CHOLESTEROL: 87.33 mg/dL
  CREATINE PHOSPHOKINASE: 258.67 u/L
  CREATININE: 0.21 mg/dL
  GLUCOSE: 187.33 mg/dL
  LACTATE DEHYDROGENASE: 132 u/L
  LIPASE: 9.67 u/L
  PHOSPHORUS: 11.9 mg/dL
  POTASSIUM: 5.67 MEQ/L
  SODIUM: 146.53 MEQ/L
  TOTAL BILIRUBIN: 0.17 mg/dL
  TOTAL PROTEIN: 5.93 G/DL
  URIC ACID: 2.47 mg/dL
[3]
  ABSOLUTE BASOPHIL: 0 CELLS/uL
  ABSOLUTE EOSINOPHIL: 154 CELLS/uL
  ABSOLUTE LYMPHOCYTE: 13307.33 CELLS/uL
  ABSOLUTE MONOCYTE: 238 CELLS/uL
  ABSOLUTE SEGMENTED NEUTROPHIL: 1100.67 CELLS/uL
  BASOPHIL: 0%
  EOSINOPHIL: 1%
  ERYTHROCYTE COUNT: 5.91 x10E6/uL
  HEMATOCRIT: 35.87%
  HEMOGLOBIN: 13.17 G/DL
  LEUKOCYTE COUNT: 14.8 x10E3/uL
  LYMPHOCYTE: 90%
  MEAN CORPUSCULAR HEMOGLOBIN: 22.3 pg
  MEAN CORPUSCULAR HEMOGLOBIN CONCENTRATION: 36.7 G/DL
  MEAN CORPUSCULAR VOLUME: 60.8 fL
  MONOCYTE: 1.67%
  NEUTROPHIL: 7.33%
  NUCLEATED RED BLOOD CELLS: 0 /100WBC
  PLATELET COUNT: 1301.67 x10E3/uL
  ALANINE AMINOTRANSFERASE: 46 u/L
  ALBUMIN: 4 G/DL
  ALKALINE PHOSPHATASE: 378.33 u/L
  ASPARTATE AMINOTRANSFERASE: 85 u/L
  BLOOD UREA NITROGEN: 16.33 mg/dL
  CARBON DIOXIDE: 27.33 mmol/L
  CHLORIDE: 104.67 MEQ/L
  CHOLESTEROL: 70.33 mg/dL
  CREATINE PHOSPHOKINASE: 346.67 u/L
  CREATININE: 0.2 mg/dL
  GLUCOSE: 174 mg/dL
  LACTATE DEHYDROGENASE: 129.67 u/L
  LIPASE: 9.33 u/L
  PHOSPHORUS: 11.03 mg/dL
  POTASSIUM: 5.65 MEQ/L
  SODIUM: 146 MEQ/L
  TOTAL BILIRUBIN: 0.2 mg/dL
  TOTAL PROTEIN: 5.83 G/DL
  URIC ACID: 1.63 mg/dL
